Test results: US20260285853A1, “COMPOUNDS AND METHODS FOR MODULATING SPLICING” (REMIX THERAPEUTICS INC., priority 2023, published 2026)

What was measured:
Format in all cases: cell-based
HTT mRNA [1] = assay: Splicing RT-qPCR assay, canonical (CJ) and alternative (AJ) junction mRNA, K562 cells; settings: Homo sapiens, K562.3 cells, 24 hours; for AC50: read-out: HTT AJ (AC50, increase in AJ mRNA); for IC50: read-out: HTT CJ (IC50, decrease in CJ mRNA)
How it was run: (§1)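 K562 cells were treated for 24 h at 37 °C with an 11-point 3-fold dilution series (top 10 uM final, DMSO ≤0.25%), then lysed for one-step RT-qPCR of canonical and alternative junctions. ΔΔCt was taken against GAPDH or GUSB and DMSO, converted to RQ by 2^(−ΔΔCt), then to % response.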

MYB mRNA [2] = assay: as above; settings: Homo sapiens, K562.3 cells, 24 hours; for AC50: read-out: MYB AJ (AC50, increase in AJ mRNA); for IC50: read-out: MYB CJ (IC50, decrease in CJ mRNA)
How it was run: as §1

MYB mRNA [3] = assay: Splicing RT-qPCR assay (THP), Table 2A; settings: Table 2A (THP); for AC50: AJ mRNA increase, read-out: MYB AJ (increase in alternative junction mRNA, AC50); for IC50: CJ mRNA decrease, read-out: MYB CJ (decrease in canonical junction mRNA, IC50)
HTT mRNA [4] = assay: Gene panel canonical junction qPCR assay, decrease in CJ mRNA, Table 3; settings: decrease in canonical junction (CJ) mRNA, gene panel qPCR, Table 3
How it was run: (§2)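 A673 (DMEM, 10% FBS, 15,000 cells/well) or K562 (IMDM, 10% FBS) cells treated 24 h at 37 °C with 11-point 3-fold dilutions, top 10 uM, DMSO ≤0.25%. Canonical exon-exon junction mRNA measured by RT-qPCR, normalized to GAPDH, GUSB or PPIA and DMSO (ΔΔCt); IC50 from 4-parameter logistic fit.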

MYB mRNA [5] = assay: as above; settings: decrease in canonical junction (CJ) mRNA, gene panel qPCR, Table 3
How it was run: as §2

SMN2 mRNA = assay: as above; settings: decrease in canonical junction (CJ) mRNA, gene panel qPCR, Table 3
How it was run: as §2

[6] = system: SH-SY5Y (human neuroblastoma) cells; assay: Cell viability, Cell Titer Glo 2.0 assay; settings: read-out: Viability SHSY5Y.3 GI50
How it was run: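 Toxicity screen in SH-SY5Y cells. Compounds were serially diluted in DMSO and then in medium, giving 0.1% DMSO final. Viability was read with CellTiter-Glo 2.0 after 72 h at 37 °C, 5% CO2, against medium-only blank wells.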

| SMILES | AC50 (HTT mRNA [1]) [nM] | IC50 (HTT mRNA [1]) [nM] | AC50 (MYB mRNA [2]) [nM] | IC50 (MYB mRNA [2]) [nM] | AC50 (MYB mRNA [3]) [nM] | IC50 (MYB mRNA [3]) [nM] | IC50 (HTT mRNA [4]) [nM] | IC50 (MYB mRNA [5]) [nM] | IC50 (SMN2 mRNA) [nM] | GI50 [6] [nM] |
| --- | --- | --- | --- | --- | --- | --- | --- | --- | --- | --- |
| CCNC1CCN(c2cc(F)c(C(=O)Nc3cn4cc(C)nc4c(F)c3OC)c3[nH]ncc23)CC1 [Compound 173, 4-[4-(ethylamino)-1-piperidyl]-6-fluoro-N-(8-fluoro-7-methoxy-2-methyl-imidazo[1,2-a]pyridin-6-yl)-1H-indazole-7-carboxamide] | 1000 to 10000 | 1000 to 10000 | < 100 | < 100 | < 100 | < 100 | 1000 to 10000 | < 100 | < 100 | < 100 |
| CCNC1CCN(c2cc(F)c(C(=O)Nc3cc(F)c4nc(C)cn4c3)c3[nH]ncc23)CC1 [Compound 174, 4-[4-(ethylamino)-1-piperidyl]-6-fluoro-N-(8-fluoro-2-methyl-imidazo-[1,2-a]pyridin-6-yl)-1H-indazole-7-carboxamide] | 1000 to 10000 | 1000 to 10000 | 100 to 1000 | 100 to 1000 | < 100 | 100 to 1000 | 1000 to 10000 | 100 to 1000 | < 100 | 100 to 1000 |
| COc1c(NC(=O)c2ccc(N3CCNCC3)c3cc[nH]c23)cn2cc(C)nc2c1F [Compound 212, N-(8-fluoro-7-methoxy-2-methyl-imidazo-[1,2-a]pyridin-6-yl)-4-piperazin-1-yl-1H-indole-7-carboxamide] | > 10000 | > 10000 | > 10000 | 1000 to 10000 | > 10000 | > 10000 | > 10000 | 1000 to 10000 | 1000 to 10000 | 1000 to 10000 |
| Cc1cn2cc(NC(=O)c3ccc(N4CCNCC4)c4cc[nH]c34)cc(F)c2n1 [Compound 213, N-(8-fluoro-2-methyl-imidazo[1,2-a]-pyridin-6-yl)-4-piperazin-1-yl-1H-indole-7-carboxamide] | > 10000 | 1000 to 10000 | > 10000 | > 10000 | > 10000 | 1000 to 10000 | 1000 to 10000 | > 10000 | > 10000 | 1000 to 10000 |
| Cc1cn2cc(NC(=O)c3ccc(N4CCNCC4)c4nonc34)cc(F)c2n1 [Compound 263, N-(8-fluoro-2-methyl-imidazo[1,2-a]pyridin-6-yl)-4-piperazin-1-yl-2,1,3-benzoxadiazole-7-carboxamide] | 1000 to 10000 | 100 to 1000 | 100 to 1000 | 100 to 1000 | 100 to 1000 | 100 to 1000 | 100 to 1000 | 100 to 1000 | < 100 | 1000 to 10000 |
| Cc1cn2cc(C(=O)Nc3c(F)cc(N4CCNCC4)c4cn[nH]c34)cc(F)c2n1 [Compound 267] | > 10000 | > 10000 | > 10000 | > 10000 | > 10000 | > 10000 | > 10000 | > 10000 | > 10000 | > 10000 |
| COC1CC(N[C@H]2CCN(c3ccc(C(=O)Nc4cc(F)c5nc(C)cn5c4)c4nn(C)cc34)C2)C1 (stereo partly drawn) [Compound 268, N-(8-fluoro-2-methyl-imidazo[1,2-a]pyridin-6-yl)-4-[(3S)-3-[(3-methoxy-cyclobutyl)amino]pyrrolidin-1-yl]-2-methyl-indazole-7-carboxamide] | 1000 to 10000 | 100 to 1000 | 100 to 1000 | < 100 | < 100 | < 100 | 100 to 1000 | < 100 | < 100 | 100 to 1000 |
